Reference: ChEMBL document CHEMBL1201862, “PubChem BioAssay data set” (2004)
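The compound was tested at five concentrations on cells cultured in 96-well plates, with a 48-hour exposure period. Abbreviation: GI50, concentration required for 50% inhibition of growth.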 Active and inactive are the calls of the source. Rule as the data show it: active = GI50 up to about 1.1 µM and inactive = higher.

Assays:
Experiment in all cases: NCI tumour cell line growth inhibition, 48 h
[1] = system: SK-MEL-28
[2] = system: Hs-578T
[3] = system: UACC-62
[4] = system: NCI-H460
[5] = system: SW-620
[6] = system: SN12C
[7] = system: HOP-92
[8] = system: MOLT-4
[9] = system: HT-29
[10] = system: TK-10
[11] = system: 786-0
[12] = system: A549
[13] = system: MDA-N
[14] = system: SF-295
[15] = system: SF-539
[16] = system: A498
[17] = system: K562
[18] = system: HL-60
[19] = system: MCF7
[20] = system: OVCAR-8

Measured: GI50

C/C(=N/NC(=S)NCCc1ccccn1)c1cnccn1
inactive: [1] 31 µM | [2] 78.5 µM | [3] 18.3 µM | [4] 52.5 µM | [5] 11.9 µM | [6] 21.9 µM | [7] 49.3 µM | [8] 3.26 µM | [9] 3.78 µM | [10] 17 µM | [11] 14.6 µM | [12] 28.8 µM | [13] 53 µM | [14] 24.4 µM

CCOC(=O)CC(N1CC1)N1CC1
inactive: [1] > 10 µM | [15] > 10 µM | [2] > 10 µM | [3] > 10 µM | [4] > 10 µM | [16] > 10 µM | [5] > 10 µM | [6] > 10 µM | [8] > 10 µM | [9] > 10 µM | [17] > 10 µM | [10] > 10 µM | [18] > 10 µM | [11] > 10 µM | [19] > 10 µM | [12] > 10 µM | [13] > 10 µM | [14] > 10 µM

COc1cc2cccc(N)c2cc1OC
inactive: [1] > 100 µM | [15] > 100 µM | [2] > 100 µM | [3] > 100 µM | [4] > 100 µM | [16] > 100 µM | [20] > 100 µM | [5] > 100 µM | [6] > 100 µM | [8] > 100 µM | [9] > 100 µM | [17] > 100 µM | [10] > 26.3 µM | [18] > 100 µM | [11] > 100 µM | [19] > 100 µM | [12] > 100 µM | [13] > 100 µM | [14] > 100 µM

CC(C)c1ccc(/C=C2\CSCC3=C2N=C2SCC(=O)N2C3c2ccc(C(C)C)cc2)cc1 (stereo unspecified)
inactive: [1] > 100 µM | [15] > 100 µM | [2] > 100 µM | [3] > 100 µM | [4] > 100 µM | [20] > 100 µM | [5] > 100 µM | [6] 92.7 µM | [7] > 100 µM | [8] 75.5 µM | [9] > 100 µM | [17] > 100 µM | [10] > 100 µM | [18] > 100 µM | [11] > 100 µM | [19] > 100 µM | [12] > 100 µM | [13] > 100 µM | [14] > 100 µM

N#C/C(N)=C(C#N)/N=C/NCCO
inactive: [1] > 100 µM | [15] > 100 µM | [2] > 100 µM | [3] > 100 µM | [4] > 100 µM | [16] > 100 µM | [20] > 100 µM | [5] > 100 µM | [6] > 100 µM | [8] > 100 µM | [9] > 100 µM | [17] > 100 µM | [10] > 100 µM | [18] > 100 µM | [11] > 100 µM | [19] > 100 µM | [12] > 100 µM | [13] > 100 µM | [14] > 100 µM

O=C(CCc1ccccc1)n1cccc1CO
inactive: [1] > 100 µM | [15] > 100 µM | [2] 60.3 µM | [3] > 100 µM | [4] > 100 µM | [16] > 100 µM | [20] > 100 µM | [5] > 100 µM | [6] > 100 µM | [8] > 100 µM | [9] > 100 µM | [17] > 100 µM | [10] > 100 µM | [18] > 100 µM | [11] > 100 µM | [19] > 100 µM | [12] > 100 µM | [13] > 100 µM | [14] > 100 µM

CC(C)=CC1C(C(=O)OCc2cc3c(cc2Cl)OCO3)C1(C)C (stereo unspecified)
inactive: [1] 54.1 µM | [2] 21.9 µM | [3] 43.1 µM | [4] 24.4 µM | [16] 26.9 µM | [20] 44.3 µM | [5] 55.7 µM | [6] 28.6 µM | [7] 31.7 µM | [8] 13.1 µM | [9] 23.1 µM | [17] 20.1 µM | [10] 63.2 µM | [11] 28.4 µM | [12] 31.5 µM | [13] 24.7 µM | [14] 26.3 µM

O=C(O)c1cc2ccccc2c(/N=N/c2ccc(S(=O)(=O)O)cc2)c1O
inactive: [1] > 100 µM | [15] > 100 µM | [2] > 100 µM | [3] > 100 µM | [4] > 100 µM | [20] > 100 µM | [5] > 100 µM | [6] > 100 µM | [7] > 100 µM | [8] > 100 µM | [9] > 100 µM | [17] > 100 µM | [10] > 100 µM | [18] > 100 µM | [11] > 100 µM | [19] > 100 µM | [12] > 100 µM | [13] > 100 µM | [14] > 100 µM

C/C(=N\NC(=O)Nc1ccccc1Cl)c1ccc(O)cc1
inactive: [1] > 100 µM | [15] > 100 µM | [2] > 100 µM | [3] > 100 µM | [4] 20.9 µM | [20] > 100 µM | [5] > 100 µM | [6] > 100 µM | [7] > 100 µM | [8] 7.85 µM | [9] > 100 µM | [17] 8.02 µM | [10] > 100 µM | [18] > 100 µM | [11] > 100 µM | [19] > 100 µM | [12] > 100 µM | [13] > 100 µM | [14] > 100 µM

c1ccc([P+](c2ccccc2)(c2ccccc2)c2ccc([P+](c3ccccc3)(c3ccccc3)c3ccccc3)c3ccccc23)cc1
inactive: [1] > 100 µM | [15] 63.7 µM | [2] 47.8 µM | [3] 86.5 µM | [4] 61.4 µM | [16] > 100 µM | [20] 88.1 µM | [5] > 100 µM | [6] > 100 µM | [8] > 100 µM | [9] 79.4 µM | [17] 29.6 µM | [10] > 100 µM | [18] 41.6 µM | [11] > 100 µM | [19] 47 µM | [12] 70.1 µM | [13] 64.4 µM | [14] > 100 µM

C=C1C(=O)O[C@H]2[C@H]([C@H](C)CCCC(C)=O)O[C@H]([C@@]3(C)CCC(=O)O3)C[C@@H]12
inactive: [1] > 100 µM | [15] 59.8 µM | [2] 29.2 µM | [3] 66.5 µM | [4] > 100 µM | [16] > 100 µM | [20] 63.4 µM | [5] 46.3 µM | [6] 92 µM | [7] > 100 µM | [8] 78.7 µM | [9] 90.2 µM | [17] 61.4 µM | [10] 17.7 µM | [18] 41.7 µM | [11] 35.2 µM | [12] > 100 µM | [13] 53.1 µM | [14] > 100 µM

CN(C)CCCNC(=O)c1cc(NC(=O)c2cc(NC(=O)c3cc(NC(=O)CCCn4ccc(CO)c4CO)cn3C)cn2C)cn1C
inactive: [1] 11.4 µM | [15] 3.44 µM | [2] 22.1 µM | [3] 3.48 µM | [4] 12.5 µM | [5] 20.6 µM | [6] 6.18 µM | [7] 13 µM | [8] 4.74 µM | [17] 3.78 µM | [10] 24.8 µM | [18] 3.1 µM | [11] 4.2 µM | [19] 3.27 µM | [12] 14.5 µM | [13] 16.5 µM

CSC1=C(C#N)C(=S)N=C(N)C1C(=O)Nc1ccc(C)cc1 (stereo unspecified)
inactive: [1] > 100 µM | [15] > 100 µM | [2] > 100 µM | [3] > 100 µM | [4] > 100 µM | [16] 68.9 µM | [20] > 100 µM | [5] > 100 µM | [6] > 100 µM | [8] > 100 µM | [9] > 100 µM | [17] > 100 µM | [10] > 100 µM | [18] > 100 µM | [11] > 100 µM | [12] > 100 µM | [13] > 100 µM

CSC1NNC2(C(=O)N1)c1ccccc1-c1ccccc12 (stereo unspecified)
inactive: [1] > 10 µM | [15] > 10 µM | [2] > 10 µM | [3] > 10 µM | [4] > 10 µM | [20] > 10 µM | [5] > 10 µM | [6] > 10 µM | [7] > 10 µM | [8] > 10 µM | [9] > 10 µM | [17] > 10 µM | [10] > 10 µM | [18] > 10 µM | [11] > 10 µM | [19] > 10 µM | [12] > 10 µM | [13] > 10 µM | [14] > 10 µM

O=C(O)C1CCCCC1C(=O)Nc1nc2ccccc2[nH]1 (stereo unspecified)
inactive: [1] > 100 µM | [15] > 100 µM | [2] > 100 µM | [3] > 100 µM | [4] > 100 µM | [16] > 100 µM | [20] > 100 µM | [5] > 100 µM | [6] > 100 µM | [7] > 100 µM | [8] 39.5 µM | [9] > 100 µM | [10] > 100 µM | [11] > 100 µM | [19] > 100 µM | [12] > 100 µM | [13] > 100 µM | [14] > 100 µM
